Laboratory results as given in patent publication US7569517B2, “4-biphenyl-substituted pyrazolidin-3 5-diones pesticide agent and/or microbicide and/or herbicide” (Bayer CropScience AG, priority 2003, dated 2009).

How the values were obtained:
Assay type in all cases: in vivo
[1] = system: greenhouse red spider mite (Tetranychus urticae); assay: Tetranychus test (OP-resistance/spray treatment) (Example E); conditions: 100 g/ha; sprayed bean leaf discs
Procedure: Tetranychus Test (OP-resistance/Spray Treatment)
• Solvents: 78 parts by weight of acetone • 1.5 parts by weight of dimethylformamide • Emulsifier: 0.5 part by weight of alkylaryl polyglycol ether
To prepare a suitable preparation of active compound, 1 part by weight of active compound is mixed with the stated amounts of solvents and emulsifier, and the concentrate is diluted with emulsifier-containing water to the desired concentration.
Discs of bean leaves (Phaseolus vulgaris) which are infested by all stages of the greenhouse red spider mite (Tetranychus urticae) are sprayed with a preparation of active compound of the desired concentration.
After the desired period of time, the activity in % is determined. 100% means that all spider mites have been killed; 0% means that none of the spider mites have been killed.

[2] = system: monocotyledonous and dicotyledonous weed and crop plants; assay: Herbicidal pre-emergence action (Example G); conditions: greenhouse, 320 g of a.i./ha
From the text: Herbicidal Pre-emergence Action
Seeds of monocotyledonous and dicotyledonous weed and crop plants are placed into sandy loam in wood fibre pots and covered with soil. The test compounds, formulated in the form of wettable powders (WP), are then, in various dosages as aqueous suspension with a water application rate of 600 l/ha (converted), with 0.2% of wetting agent added, applied to the surface of the covering soil. After the treatment, the pots are placed in a greenhouse and kept under good growth conditions for the test plants. The visual assessment of the emergence damage on the test plants is carried out after a trial period of 3 weeks by comparison with untreated controls (herbicidal effect in percent (%): 100% effect=the plants have died, 0% effect=like control plants).

[3] = system: monocotyledonous and dicotyledonous weed and crop plants; assay: Herbicidal post-emergence action (Example H); conditions: greenhouse, 320 g of a.i./ha
Procedure: (§1) Herbicidal Post-emergence Action
Seeds of monocotyledonous and dicotyledonous weed and crop plants are placed into sandy loam in wood fibre pots, covered with soil and cultivated in a greenhouse under good growth conditions. 2-3 weeks after sowing, the test plants are treated at the one-leaf stage. The test compounds, formulated as wettable powders (WP), are, in various dosages with a water application rate of 600 l/ha (converted), with 0.2% of wetting agent added, sprayed onto the green parts of the plants. After the test plants were kept in a greenhouse under optimum growth conditions for about 3 weeks, the effect of the preparations is rated visually in comparison to untreated controls (herbicidal effect in percent (%): 100% effect=the plants have died, 0% effect=like control plants).

[4] = system: monocotyledonous and dicotyledonous weed and crop plants (cereals); assay: Herbicidal post-emergence action, use of safeners, container trials with cereals in the greenhouse (Example I); conditions: without safener
Procedure: as §1
Seeds of monocotyledonous and dicotyledonous weed and crop plants are placed into sandy loam in wood fibre pots or in plastic pots, covered with soil and cultivated in a greenhouse, during the vegetation period also outdoors outside of the greenhouse, under good growth conditions. 2-3 weeks after sowing, the test plants are treated at the one- to three-leaf stage. The test compounds, formulated as wettable powders (WP), or emulsifiable concentrates (EC), are, in various dosages with a water application rate of 300 l/ha (converted), with wetting agent (0.2 to 0.3%) added, sprayed onto the plants and the surface of the soil. 3-4 weeks after the treatment of the test plants, the effect of the preparations is rated visually in comparison to untreated controls (herbicidal effect in precent (%): 100% effect=the plants have died, 0% effect=like control plants).
If it is additionally to be tested whether safeners can improve the plant compatibility of test substances in the case of the crop plants, the following option is used for applying the safener: • seeds of the crop plants are, before sowing, dressed with the safener substance (the amount of safener is stated in percent, based on the weight of seed) • before the application of the test substances, the crop plants are sprayed with the safener at a certain application rate per hectare (usually 1 day before the application of the test substances) • the safener is applied together with the test substance as a tank mix (the amount of safener is stated in g/ha or as a ratio, based on the herbicide).
By comparing the effect of test substances on crop plants without or with safener treatment, it is possible to assess the effect of the safener substance.

[5] = system: Meloidogyne incognita; assay: Meloidogyne test (Example A); conditions: 20 ppm active compound; nematicidal action by formation of galls on lettuce roots; 100% = no galls
Procedure: • Solvent: 7 parts by weight of dimethylformamide • Emulsifier: 2 parts by weight of alkylaryl polyglycol ether
To produce a suitable preparation of active compound, 1 part by weight of active compound is mixed with the stated amounts of solvent and emulsifier, and the concentrate is diluted with water to the desired concentration.
Containers are filled with sand, solution of active compound, Meloidogyne incognita egg/larvae suspension and lettuce seeds. The lettuce seeds germinate and the plants develop. On the roots, galls are formed.
After the desired period of time, the nematicidal action is determined in % by the formation of galls. 100% means that no galls were found; 0% means that the number of galls on the treated plants corresponds to that of the untreated control.

| Compound | Kill rate in % after 5d [1] | herbicidal effect, Echinochloea ([2]; Echinochloea) | herbicidal effect, Setaria ([2]; Setaria) | herbicidal effect, Sorghum ([2]; Sorghum) | herbicidal effect, Soybeans ([2]; Soybeans) | herbicidal effect, Wheat ([2]; Wheat) | herbicidal effect, Alopecurus ([3]; Alopecurus) | herbicidal effect, Digitaria ([3]; Digitaria) | herbicidal effect, Lolium ([3]; Lolium) | herbicidal effect, Setaria ([3]; Setaria) | herbicidal effect, Sugarbeets ([3]; Sugarbeets) | Summer barley observed (%) ([4]; 25 g of a.i./ha) | Summer wheat observed (%) ([4]; 25 g of a.i./ha) | Summer barley observed (%) ([4]; 50 g of a.i./ha) | Summer wheat observed (%) ([4]; 50 g of a.i./ha) | Summer barley observed (%) ([4]; 100 g of a.i./ha) | Summer wheat observed (%) ([4]; 100 g of a.i./ha) | Effect in % after 14d [5] |
| --- | --- | --- | --- | --- | --- | --- | --- | --- | --- | --- | --- | --- | --- | --- | --- | --- | --- | --- |
| Cc1cc(-c2ccc(Cl)cc2)cc(C)c1C1(Cl)C(=O)N2CCOCCN2C1=O [Ex. I-4-1] | 90% | 70% | 80% | 70% | 0% | 0% | 80% | 100% | 80% | 100% | 10% | 40% | 60% | 95% | 97% | 97% | 97% | – |
| Cc1cc(-c2ccc(Cl)cc2)cc(C)c1C1(Cl)C(=O)N2CCCCN2C1=O [Ex. I-3-1] | – | – | – | – | – | – | – | – | – | – | – | – | – | 80% | 60% | 80% | 60% | 100% |
